The values below come from patent publication US4599331A, “Etianic acids as antiangiogenics” (Syntex (U.S.A.) Inc., priority 1984, dated 1986).

The test system of experiment [1] is Epidermal Growth Factor. Description: hamster cheek pouch (HCP) angiogenesis inhibition, EGF stimulus. The class given is in vivo, Male Syrian Golden hamsters. The conditions noted are these: Table 1; 10 μg EGF; between 0.5 and 4 mg/kg s.c. daily; each number independent result, average of six animals. As to the method:
Each compound of the series was also tested for anti-angiogenic activity by an in vivo test that measured vascularization in a hamster's cheek pouch in response to either an angiogenic polypeptide growth factor, epidermal growth factor (EGF) or an induced […].
In this example, the in vivo angiogenesis inhibition activity of etianic acid esters was tested. Male Syrian Golden hamsters, weighing between 120 g and 150 g were anaesthetized by intraperitoneal (I.P.) injection of a rodent anaesthetic mixture consisting of 50 mg/kg ketamine hydrochloride, 5 mg/kg xylazine and 1 mg/kg acepromazine. The left cheek pouch of each animal was everted with a pincet and pinned down to a plexiglass-rubber stage and observed through a Zeiss stereomicroscope. 10 μg of EGF or 3×10^5 Hamster Melanoma RPM1 1846 tumor cells in 10 μl Cibachrome Blue agarose (Amicon) were injected subcutaneously in the left lower quadrant of the pouch with a Hamilton syringe.
The pouch was then reinserted and animals were kept under observation until recovered from anaesthesia.
The animals were dosed daily with one test compound, starting one day before stimulus injection and continuing until observation. The test compounds were dissolved in a minimum volume of ethanol and diluted in sterile phosphate buffer solution. […]
Either five days or twelve days after the EGF or tumor cell injection, animals were anaesthetized by I.P. injection of the rodent anaesthetic mixture. The pouch was everted on the stage and examined under the stereomicroscope. Pictures were taken with a 35 mm using Kodak Tungsten 50 professional films.
The following subjective scoring was used for evaluating the photographs:
1: minimal branching of vessels in the vicinity of injection site.
2: new vessels reach injection site, area involved is minimal (<50% of area surrounding injection site).
3: many vessels reach and cross injection site, new vessels are tortuous, (>50% of area surrounding injection site).
4: "full blown", many tortuous vessels, leakages, hemorrhages, 100% of area around injection site, invasion of new vessels into non-injected areas.
Results are expressed as the mean of the score. The results are shown in Tables 1 and 2 are percent inhibition of HCP Stimulus.

Experiment [2] concerns tyrosine aminotransferase (TAT). Kind of experiment: tyrosine aminotransferase (TAT) induction in HTC cells. The experiment is classed as cell-based, rat. The following applies: Rattus norvegicus, Table 1, 24 or 48 hours, from 10^-6 M down, relative to dexamethasone = 1, read-out: Efficacy (DEX = 1) TAT. The protocol:
In this example, tyrosine aminotransferase (TAT) activity was determined by a spectrophotometric assay. This enzyme catalyzes the conversion of tyrosine to p-hydroxyphenylpyruvate. This example is a standard in vitro test for glucocorticoid activity.
Addition of base caused the conversion of p-hydroxyphenylpyruvate to p-hydroxybenzaldehyde, which was quantitatively measured by absorbance at 331 nm. HTC cells, the target cells for the compound tested were grown in DMEM+10% FCS. Subconfluent cell cultures were incubated with test compounds in 6 well Costar dishes for 24 or 48 hours. The cells were incubated in either serum-free DMEM or DMEM containing 10% FCS previously filtered over activated charcoal. The cells were harvested in PBS using a rubber policeman, then washed once in PBS by centrifugation and resuspended in a 0.3 ml lysis buffer of 10 mM Tris, 10 mM EDTA and 0.25M sucrose at pH 7.4. The cells were then lysed by three cycles of freeze-thawing using dry ice and a 37° C. waterbath and the cells debris was pelleted by centrifugation for 2 min at 12,000 9 in an Eppendorf centrifuge.
The supernatant was used for a protein determination using either E+K stain or BioRad protein assay kit and TAT activity. 0.1 ml TAT buffer having 50 mM KH2 PO4, 1 mM EDTA, 0.1 mM Dithiothereitol (DTT), and 5 mg/ml BSA at pH 7.6 and 0.1 ml cell extract were mixed in glass tubes. A prewarmed mixture of 200 parts of a 2.3 mg/ml tyrosine solution in 0.05M phosphate buffer, 100 parts 0.125M KH2 PO4, 10 parts of a 0.92 mg/ml and ketoglutarate solution and 1 part of a 0.04 mg/ml pyridoxalphosphate solution had been previously made up. […] of the prewarmed mixture was added to each tube and allowed to react at 37° C. for 15 min. The addition of 0.1 ml 7N […] stopped the reaction. The mixture was then immediately vortexed.
Aldehyde formation was allowed to proceed at 37° C. for 30 min. The amound of aldehyde formed was determined by UV spectroscopic means. Absorbance was read at 331 nm using a solution composed of 0.1 ml TAT buffer, 0.1 ml lysis buffer, 0.7 ml reaction mixture and 0.1 ml 7N KOH as a blank. Optical Density values are linearily corrected for protein content.
As the absolute amount of enzyme induction varies between experiments, results are expressed as percent of the maximal induction obtained with dexamethasone, which was run as a standard in each assay.
In this series, compounds were assayed from 10^-6 M down. Results are expressed in the TAT column of tables 1, and 2 as the induction ability of a compound as compared to dexamethasone; a compound may either be a partial inducer or a superinducer.

In experiment [3] the test system is alkaline phosphatase (APb). Description: alkaline phosphatase (APb) induction in LE II cells. The class given is cell-based, mouse. The conditions noted are these: Mus musculus, Table 1, about 65 hours, relative to dexamethasone = 1, read-out: Efficacy (DEX = 1) Alk P. The protocol:
This is another standard test for glucocorticoid activity.
LE II cells were grown in DMEM plus 10% FCS, at 37° C., in a 10% carbon dioxide atmosphere. Confluent monolayers of cells were trypsinized and seeded at a 1:15 dilution into 6-well Costar cluster dishes. […] In all experiments, DEX, at concentrations of 10^-9 to 10^-6 M, was added to some of the wells as a positive control.
Cell monolayers were washed with PBS and harvested by scraping with a rubber policeman into 400 μl of a buffer of 20 mM Tris-HCl at pH 7.4; 2 mM MgCl2; and 150 mM NaCl together with 1% Triton X-100. Samples were transferred into 1.5 ml Eppendorf centrifuge tubes and placed on ice. The tubes were first vortexed and then centrifuged in the Eppendorf minicentrifuge for 2 minutes. Duplicate 100 μl aliquots of supernatant were placed into 12×75 mm glass test tubes for determination of APb activity, while the rest was saved for protein determination. […] The tubes were incubated in a 37° C. water bath for between 20 to 50 minutes, depending on the activity of the samples. The APb reaction was terminated by the addition of 0.5 ml of […]. The tubes were mixed and 200 μl portions from each tube were transferred in triplicate to a 96 well microtiter plate. The OD410 nm of each well was then determined using a Dynatech plate reader.
[…] of the cell supernatant were transferred to 96 well microtiter plates for protein determination by a modification of the Lowry method. […] The plates were shaken for 1 hour and then the OD630 was determined using a Dynatech plate reader. The protein content for each sample was calculated by comparing the average OD630 reading with those obtained for a bovine serum albumin standard curve.
The alkaline phosphatase activity of in each sample was expressed as μmoles product formed per minute per mg protein in the Alk P column of Tables 1 and 2. Results are expressed as the induction ability of a compound as compared to dexamethasone.

Several values for one entry are separate records, joined by “and”; a condition that tells them apart may be missing. Equal values may be shown once.

In the case of `CCC(=O)O[C@]1(C(=O)OC)[C@@H](C)C[C@H]2[C@@H]3CCC4=CC(=O)C=C[C@]4(C)[C@@]3(F)[C@@H](O)C[C@@]21C` [compound 1], the “% Inhibition HCP Stimulus Epidermal Growth Factor” value in experiment [1] was 70% and 77%. Moreover, the Emax in experiment [2] and in experiment [3] was 100% each time.

Take `CCC(=O)O[C@]1(C(=O)OC)[C@@H](C)C[C@H]2[C@@H]3CC(F)C4=C(F)C(=O)C=C[C@]4(C)[C@@]3(F)[C@@H](O)C[C@@]21C` (stereo partly drawn) [compound 3]: the “% Inhibition HCP Stimulus Epidermal Growth Factor” value in experiment [1] is 95% and 91%. Further, the Emax came to 150% in experiment [2] and 100% in experiment [3].

For `CCCC(=O)O[C@]1(C(=O)OC)[C@@H](C)C[C@H]2[C@@H]3CC(F)C4=CC(=O)C=C[C@]4(C)[C@@]3(F)[C@@H](O)C[C@@]21C` (stereo partly drawn) [compound 4], in experiment [1], the “% Inhibition HCP Stimulus Epidermal Growth Factor” value is 100% and 78%. The Emax in experiment [2] turned out to be 100%; in experiment [3] it was 170%.

Turning to `CCC(=O)O[C@]1(C(=O)OC)[C@H](C)C[C@H]2[C@@H]3CC(F)C4=CC(=O)C=C[C@]4(C)[C@@]3(F)[C@@H](O)C[C@@]21C` (stereo partly drawn) [compound 7], the “% Inhibition HCP Stimulus Epidermal Growth Factor” value in experiment [1] turned out to be 57%. Besides, the Emax amounted to 200% in experiment [2] and 110% in experiment [3].

As for `CCC(=O)O[C@]1(C(=O)OC)[C@H](C)C[C@H]2[C@@H]3CC(F)C4=C(F)C(=O)C=C[C@]4(C)[C@@]3(F)[C@@H](O)C[C@@]21C` (stereo partly drawn) [compound 8], the “% Inhibition HCP Stimulus Epidermal Growth Factor” value in experiment [1] was 100% and 72% and 82%. Further, the Emax in experiment [2] was determined as 100%; in experiment [3], 120%.

In the case of `CCCC(=O)O[C@]1(C(=O)OC)[C@H](C)C[C@H]2[C@@H]3CC(F)C4=CC(=O)C=C[C@]4(C)[C@@]3(F)[C@@H](O)C[C@@]21C` (stereo partly drawn) [compound 9], the “% Inhibition HCP Stimulus Epidermal Growth Factor” value in experiment [1] stood at 100%. Moreover, the Emax in experiment [2] and in experiment [3] was 90% in each case.
